The values that follow are results of earlier work, collected in patent US20060089319A1, “Method for treatment and prevention of bacterial vaginosis” (priority 2004, published 2006).

This series relates to bacterial vaginosis.

`Cc1ncc([N+](=O)[O-])n1CCO` [metronidazole]: the “hospital admissions for preterm labor, preterm births, PROM, and low-birth-weight infants” value (oral, high-risk women with previous preterm delivery, double-blind study by Morales et al.) is given as “fewer”. Moreover, the “long-term suppression of bacterial vaginosis flora (duration)” value (oral, pregnant women, two separate studies) was 2-3 months. For the same compound, the “treatment of bacterial vaginosis in pregnant women, thereby preventing preterm delivery” value (pregnant women, numerous studies) is given as “effective treatment”.
